In patent US8697714B2, “Quinazolinone based fluorogenic probes” (Nanyang Technological University, priority 2010, dated 2014):

Key:
PC12 cell line = experiment: Cell viability, standard MTT assay; assay type: cell-based, Rattus norvegicus; settings: FIG. 6
Method: FIG. 6 illustrates the cell viability of substrate MAO-HPQ 1 (2-(5′-chloro-2′-(3-aminopropoxy)phenyl)-6-chloro-4(3H)-quinazolinone) and 2-(2′-hydroxy-5′-chlorophenyl)-6-chloro-4(3H)-quinazolinone (indicated as HPQ″) in PC12 cell line. As a Control, cells were treated with 5% of DMSO only.
the cytotoxicity activity of MAO-HPQ 1 was evaluated by the standard MTT assay as previously described in Y. H. Choi et al, J. Control. Rel., 1998, 54, 39-48. MAO-HPQ 1 indicates less toxicity and thereby can be used as a probe for real-time imaging of MAO activity in living cells (FIG. 6).

C6 glioma cells = experiment: Imaging in living C6 glioma cells (negative control, no MAO expression); assay type: cell-based; settings: 100 μM, 37° C., 1 h
Method: (§1) PC12 cell (Rattus norvegicus, adrenal gland) was bought from American Type Culture Collection (ATCC Cat No: CR-1721) and maintained in F-12K medium (ATCC, Manassas Va.) containing 10% FBS (Invitrogen, Burlington, Canada). PC12 cell line were seeded at a density of 2×10^5 in a 35 mm diameter μ-dish plastic bottom (ibidi GmbH, Germany) and cultured for 2 days with Nerve Growth Factor (2.5S, 30 ng/mL, Invitrogen, Carlsbad, Calif.)^[2] in Dulbecco's Modified Eagle Medium (DMEM 1×, without phenol red, Gibco/Invitrogen, Carlsbad, Calif.) containing 4.5 g/L D-glucose, 2 mM GlutaMax-1 (Invitrogen). Control C6 glioma cell line was bought from American Type Culture Collection (ATCC Cat No.: CCL-107) and cultured with the same protocol as PC12 cell lines). After 2 days of culture, the live PC12 and C6 glioma cell lines were washed twice with DMEM. The live cells were then treated separately with 100 μM of MAO-HPQ 1 in DMEM (containing 0.5% of DMSO) and incubated for 1 hour in an incubator at 37° C. The cells were washed twice with Hank's Balanced Salt solution (Sigma). The fluorescence imaging was acquired with a Confocal fluorescence microscope (Nikon, Eclipse TE2000-E) using a super high pressure mercury lamp (Nikon, TE2-PS100W) with excitation filter: 360/40 nm; emission filter: 535/40 nm.
(§2) PC12 cell line was chosen owing to its high expression of MAO. […]

monoamine oxidase B = target: T1, monoamine oxidase B (Homo sapiens, UniProt P27338); experiment: Fluorescent enhancement of MAO substrates after incubation with MAO B; assay type: biochemical; settings: MAO B 10 μg/ml, substrate 200 μM, 37° C., 2 hours, emission 530 nm
T1 construct: purchased Sigma Aldrich
T1 sequence (P27338 1-520): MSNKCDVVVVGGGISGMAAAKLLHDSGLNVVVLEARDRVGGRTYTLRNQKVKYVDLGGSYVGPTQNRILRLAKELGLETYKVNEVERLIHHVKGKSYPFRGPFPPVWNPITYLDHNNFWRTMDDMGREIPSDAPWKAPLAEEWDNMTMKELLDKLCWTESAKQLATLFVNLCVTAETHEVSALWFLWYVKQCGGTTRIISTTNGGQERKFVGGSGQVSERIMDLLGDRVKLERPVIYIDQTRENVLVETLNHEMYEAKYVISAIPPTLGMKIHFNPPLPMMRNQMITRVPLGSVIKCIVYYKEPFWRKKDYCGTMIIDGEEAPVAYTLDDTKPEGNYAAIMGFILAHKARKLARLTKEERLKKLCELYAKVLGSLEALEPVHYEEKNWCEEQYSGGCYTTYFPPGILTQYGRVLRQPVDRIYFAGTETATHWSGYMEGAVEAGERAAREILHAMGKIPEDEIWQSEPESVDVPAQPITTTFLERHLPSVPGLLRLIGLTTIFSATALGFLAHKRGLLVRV
Method: (§3) Activity of fluorogenic MAO-HPQ 1, 2 and 3 were determined by the fluorescence intensity after incubations separately with monoamine oxidase A or B at 37° C. for 2 hours. Typically, 5 μl of MAO A and B enzyme solution (final concentration of 10 μg/ml) was incubated with MAO substrates 1, 2 and 3 (final concentration of 200 μM) in a 100 mM Tris-HCl buffer, pH 7.90, 5% glycerol and 5% DMSO. After 2 hours of incubation, the fluorescent enhancement was monitored by Fluorescence spectrophotometer with excitation wavelength at 360 nm.
(§4) The activity of these three probes (MAO-HPQ 1˜3) towards both MAO isozymes were investigated by in vitro fluorescent measurements. All the MAO substrates 1, 2, and 3 were very stable in aqueous solutions and were almost non-fluorescent before MAO enzymatic oxidation due to the alkylation of the 2′-hydroxyl group in the 2-(2′-hydroxy-5′-chlorophenyl)-6-chloro-4(3H)-quinazolinone fluorophore.
(§5) The ratio of fluorescent intensity in the presence and absence of MAO enzymes were used to estimate MAO activities.

monoamine oxidase A = target: T2, monoamine oxidase A (Homo sapiens, UniProt P21397); experiment: Fluorescent enhancement of MAO substrates after incubation with MAO A; assay type: biochemical; settings: MAO A 10 μg/ml, substrate 200 μM, 37° C., 2 hours, emission 530 nm
T2 construct: purchased Sigma Aldrich
T2 sequence (P21397 1-527): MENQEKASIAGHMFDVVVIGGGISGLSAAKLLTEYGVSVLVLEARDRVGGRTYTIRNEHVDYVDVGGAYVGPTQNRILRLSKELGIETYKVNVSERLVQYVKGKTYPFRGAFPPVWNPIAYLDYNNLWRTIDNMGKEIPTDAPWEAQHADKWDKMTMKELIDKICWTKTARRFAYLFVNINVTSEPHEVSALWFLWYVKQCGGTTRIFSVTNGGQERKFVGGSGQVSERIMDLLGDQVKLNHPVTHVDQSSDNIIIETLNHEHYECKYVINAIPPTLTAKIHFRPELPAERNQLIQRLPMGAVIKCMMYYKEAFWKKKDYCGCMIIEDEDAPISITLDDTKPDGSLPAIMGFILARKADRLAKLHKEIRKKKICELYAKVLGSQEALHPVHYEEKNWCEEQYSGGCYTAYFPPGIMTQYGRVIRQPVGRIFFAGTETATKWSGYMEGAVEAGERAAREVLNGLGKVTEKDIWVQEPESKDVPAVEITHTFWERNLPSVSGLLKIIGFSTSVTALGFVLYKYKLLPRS
Method: as §3, §4, §5

[1] = test system: MAO activity in PC12 cells; experiment: Imaging of MAO activity in living PC12 cells; assay type: cell-based, Rattus norvegicus; settings: 100 μM, 37° C., 1 h
Method: as §1, §2

[2] = Stability of substrates in aqueous solutions; assay type: physicochemical; settings: before MAO enzymatic oxidation
From the text: as §4

[3] = test system: MAO activity in PC12 cells; experiment: Inhibition imaging: PC12 cells pre-treated with inhibitor, then MAO-HPQ 1; assay type: cell-based, Rattus norvegicus; settings: 100 μM inhibitor pre-treatment, then 100 μM MAO-HPQ 1, 37° C., 1 h
Method: In the inhibition investigation, the live PC12 cell lines were washed twice with DMEM and pre-treated separately with 100 μM Clorgyline and Pargyline in DMEM for 1 hour in an incubator at 37° C. MAO-HPQ 1 was then added to the μ-dish with the final concentration of 100 μM and incubated for another 1 hour at 37° C. The cells were then washed twice with Hank's Balanced Salt solution. The fluorescence imaging was acquired with the Confocal fluorescence microscope.
Further imaging investigations were conducted by utilizing two commonly used inhibitors: Clorgyline for MAO A and Pargyline for MAO B. The PC12 cells were pre-treated separately with 100 μM of MAO A inhibitor clorgyline and MAO B inhibitor pargyline, and then incubated with 100 μM of MAO-HPQ probe 1 at 37° C. for 1 h. […] This is in accordance with the in vitro enzyme inhibition tests (FIG. 5). MAO-HPQ 1 indicates less toxicity (FIG. 6) and thereby can be used as a new probe for real-time imaging of MAO activity in living cells.

Row | SMILES | cytotoxicity activity (MTT) (PC12 cell line) | fluorescence in live cell imaging (C6 glioma cells) | maximum fluorescent enhancement (ratio of fluorescent intensity in the presence and absence of MAO enzyme) (monoamine oxidase B) [fold] | maximum fluorescent enhancement (ratio of fluorescent intensity in the presence and absence of MAO enzyme) (monoamine oxidase A) [fold] | fluorescence in live cell imaging [1] | stability in aqueous solutions [2] | fluorescence of PC12 cells pre-treated with inhibitor (MAO inhibition in living cells) [3]
1 | NCCCOc1ccc(Cl)cc1-c1nc2ccc(Cl)cc2c(=O)[nH]1 [MAO-HPQ 1, 2-(5′-chloro-2′-(3-aminopropoxy)phenyl)-6-chloro-4(3H)-quinazolinone] | less toxicity | little | 300 | 307 | bright fluorescence signals | very stable | –
2 | CNCCCOc1ccc(Cl)cc1-c1nc2ccc(Cl)cc2c(=O)[nH]1 [MAO-HPQ 2, 2-(5′-chloro-2′-(3-(N-methylamino)propoxy)phenyl)-6-chloro-4(3H)-quinazolinone] | – | – | 20 | 15 | – | very stable | –
3 | CN(C)CCCOc1ccc(Cl)cc1-c1nc2ccc(Cl)cc2c(=O)[nH]1 [MAO-HPQ 3, 2-(5′-chloro-2′-(3-(N,N′-dimethylamino)propoxy)phenyl)-6-chloro-4(3H)-quinazolinone] | – | – | 7 | 5 | – | very stable | –
4 | C#CCN(C)CCCOc1ccc(Cl)cc1Cl [clorgyline, Clorgyline] | – | – | – | – | – | – | no obvious fluorescence
5 | C#CCN(C)Cc1ccccc1 [pargyline, Pargyline] | – | – | – | – | – | – | strong fluorescence similar to the imaging result without inhibitor treatment
